Where two headings read alike, the source gives them in different places.
Experiments:
[1] = Body weight / toxicity in xenograft animal model; type: in vivo, mouse; conditions: 4 mg/kg tail vein (IV) once every 3 days, 6 times; FIG. 8C
Source text: After 4-week-old athymic nude mice (female) were purchased, only healthy mice were selected while the mice were adapted to the environment of the animal breeding room for 7 days. For identification of each mouse, the ears were marked using an ear punch. In addition, the breeding box was identified by attaching a mouse identification card describing the test number, test substance name, test item, receipt date, test date, test content, and the person in charge of the test. The environment of the animal breeding room was maintained at a temperature of 22±3° C., a relative humidity of 50±20%, 10 to 15 ventilations/hour, a 12-hour light (8:30 to 20:30)/dark cycle, and an illuminance of 150 to 300 lux. In addition, the animals were fed feed and drinking water during the breeding period, and quarantined during the acclimatization and testing periods. […]
During a period ranging from the day the mouse breast cancer cell line 4T1-luc was injected to the end of the experiment (dissection date), the tumor volume was measured every day. […] In order to confirm the tumor regression effect, the volume of the tumor was measured before administration of the compound of Production Example 6, and at day 28 after the first administration of the compound of Production Example 6, the animals were euthanized, and the primary tumors were excised and their volumes were compared.

4T1 cell line [2] = test: Clonogenic assay; type: cell-based, mouse; conditions: 4T1, 10 μM; FIG. 2B
Method: The breast cancer cell line of Experimental Method 1 was dispensed into a 6-well plate at a density of 1 to 2×10^3 cells/well. After the cells were sufficiently attached, they were treated with the compound of Production Example 6 at a concentration of 0 to 30 μM and cultured for 10 days to 14 days. Next, the cultured cells were fixed with 4% formaldehyde and stained with 1% crystal violet, and the colonies were counted under a microscope.

p-AMPK (Thr172) = test: AMPK activation by p-AMPK (Thr172) Western blot in 4T1 cells; type: cell-based, mouse; conditions: 24 hours
Method: [3-1] The breast cancer cell line of Experimental Method 1 above was treated with the compound of Production Example 6 at a concentration of 0 to 30 μM, and then cultured for 24 hours. Thereafter, the cells were harvested and lysed in RIPA buffer, and the protein was electrophoresed by SDS-PAGE, and then the expression level of the protein was analyzed using antibodies specific for AMPK and phospho-AMPK (Thr172). GAPDH or β-actin was used as a loading control for protein quantification.
[3-2] The three breast cancer cell lines (4T1, BT549, and MDA-MB-231) of Experimental Method 1 were treated with each of the compound of Production Example 6 and 13 compounds, including the compounds of Production Examples 1 to 5 and 8 to 15 having a similar structure (YE-01, 02, 03, 04, 05, 08, 09, 10, 11, 12, 13, 14 and 15), at a concentration of 10 μM, and then cultured for 24 hours. In addition, each of two types of gastric cancer cell lines, brain cancer cell lines and pancreatic cancer cell lines was treated with the compound of Production Example 6 or the compound of Production Example 8 having a similar structure at a concentration of 10 μM and then cultured for 12 hours. Thereafter, the cells were harvested and lysed in RIPA buffer, and the protein was electrophoresed by SDS-PAGE, and then the expression level of the protein was analyzed using antibodies specific for AMPK and phospho-AMPK (Thr172). GAPDH or β-actin was used as a loading control for protein quantification.

[3] = tested on: cleaved-PARP, Bcl-2 and Cyclin D1 proteins; test: Apoptosis marker Western blot in 4T1 cell line; type: cell-based, mouse; conditions: FIG. 5
BT549 cell line = test: Cell viability assay (WST-1); type: cell-based; conditions: Homo sapiens
Method: (§1) [4-1-1] The breast cancer cell line of Experimental Method 1 was treated with 5-aminoimidazole-4-carboxamide ribonucleotide (AICAR) (which is not the compound of Production Example 6) or the compound of Production Example 6 at a concentration of 0 to 30 μM, and then cultured for 24 hours, 48 hours and 72 hours. Thereafter, the cultured cells were treated with WST-1 reagent, and then the absorbance at a wavelength of 450 nm was measured. Here, the WST-1 reagent allows the cell viability to be measured by changing the color of the culture medium depending on the level of the mitochondrial dehydrogenase present in the cell.
(§2) [4-1-2] The breast cancer cell line 4T1, BT549 or MDA-MB-231 of Experimental Method 1 was treated with each of the compound of Production Example 6 and 13 compounds, including the compounds of Production Examples 1 to 5 and 8 to 15 having a similar structure (YE-01, 02, 03, 04, 05, 08, 09, 10, 11, 12, 13, 14 and 15), at a concentration of 0 to 50 μM, and then cultured for 24 hours. Each of three types of gastric cancer cell lines, brain cancer cell lines and pancreatic cancer cell lines was treated with the compound of Production Example 6 or the compound of Production Example 8 having a similar structure at a concentration of 0 to 50 μM, and then cultured for 24 hours. Thereafter, the cultured cells were treated with WST-1 reagent according to the manufacturer's instruction, and after a certain time, the absorbance at a wavelength of 450 nm was measured. Here, the WST-1 reagent allows the cell viability to be measured by changing the color of the culture medium depending on the level of the mitochondrial dehydrogenase present in the cell.

4T1 cell line [4] = test: Cell viability assay (WST-1); type: cell-based; conditions: Mus musculus
Method: as §1, §2

MDA-MB-231 cell line = test: Cell viability assay (WST-1); type: cell-based; conditions: Homo sapiens, MDA-MB-231, 24 h, read-out: cancer cell viability inhibited
Method: as §1, §2

With `COc1ccc(OC)c(/C=C/C(=O)c2ccc(NS(=O)(=O)c3ccc(Cl)cc3)cc2)c1` [Production Example 6, (E)-4-chloro-N-(4-(3-(2,5-dimethoxyphenyl)acryloyl)phenyl)benzenesulfonamide] the “weight loss depending on the breeding time” value [1] was “no weight loss”, the colony formation (4T1 cell line [2]) was “significantly reduced” and the phospho-AMPK protein (p-AMPK (Thr172); 4T1, 0 to 30 μM, FIG. 5) was “increased in a concentration-dependent manner”. For the same molecule, the p-AMPK level (p-AMPK (Thr172); 4T1, 10 μM, FIG. 3B) was “effectively increased”, the “level of Bcl-2 protein” value [3] was “decreased” and the “level of Cyclin D1 protein” value [3] was “decreased”. The “level of apoptosis marker cleaved-PARP protein” value [3] was “increased”, the cytotoxicity at 10 µM (BT549 cell line; BT-549, 24 h, read-out: cancer cell viability inhibited) was ≥ 50% and the cytotoxicity at 10 µM (BT549 cell line; BT-549, read-out: cell viability inhibited) was ≥ 50%. The cytotoxicity at 10 µM (4T1 cell line [4]; 4T1, 24 h, read-out: cancer cell viability inhibited) was ≥ 50%, the cytotoxicity at 10 µM (4T1 cell line [4]; 4T1, read-out: cell viability inhibited) was ≥ 50% and the cytotoxicity at 10 µM (MDA-MB-231 cell line) was ≥ 50%.

Reference: patent US12447137B2, “Composition for prevention, amelioration, or treatment of cancer” (EWHA UNIVERSITY—INDUSTRY COLLABORATION FOUNDATION, priority 2019, dated 2025)
